Assay results as given in PubChem BioAssay AID1982 (Sanford-Burnham Center for Chemical Genomics, 2009).
The source made the active and inactive calls. How the calls were made is not given here.

Columns and labels:
Test in all cases: kinase panel binding selectivity, selectivity assay, biochemical, KINOMEscan (AID 1982)
[1] = target: Tyrosine-protein kinase receptor UFO (Homo sapiens) (UniProt P30530); conditions: KINOMEscan 353-kinase binding panel, qPCR; AXL; at 10 µM; stronger effect = lower value
[2] = system: JNK1; conditions: KINOMEscan 353-kinase binding panel, qPCR, at 10 µM, stronger effect = lower value
[3] = system: CDC2L1; conditions: KINOMEscan 353-kinase binding panel, qPCR, at 10 µM, stronger effect = lower value
[4] = system: BMX; conditions: KINOMEscan 353-kinase binding panel, qPCR, at 10 µM, stronger effect = lower value
[5] = system: MAP4K1; conditions: KINOMEscan 353-kinase binding panel, qPCR, at 10 µM, stronger effect = lower value
[6] = target: Protein-tyrosine kinase 2-beta (Homo sapiens) (UniProt Q14289); conditions: KINOMEscan 353-kinase binding panel, qPCR; PTK2B; at 10 µM; stronger effect = lower value
[7] = system: ACVR1; conditions: KINOMEscan 353-kinase binding panel, qPCR, at 10 µM, stronger effect = lower value
[8] = target: Inhibitor of nuclear factor kappa-B kinase subunit epsilon (Homo sapiens) (UniProt Q14164); conditions: KINOMEscan 353-kinase binding panel, qPCR; IKK-epsilon; at 10 µM; stronger effect = lower value
[9] = target: RAC-gamma serine/threonine-protein kinase (Homo sapiens) (UniProt Q9Y243); conditions: KINOMEscan 353-kinase binding panel, qPCR; AKT3; at 10 µM; stronger effect = lower value
[10] = system: PCTK1; conditions: KINOMEscan 353-kinase binding panel, qPCR, at 10 µM, stronger effect = lower value
[11] = target: Serine/threonine-protein kinase DCLK1 (Homo sapiens) (UniProt O15075); conditions: KINOMEscan 353-kinase binding panel, qPCR; DCAMKL1; at 10 µM; stronger effect = lower value
[12] = target: Misshapen-like kinase 1 (Homo sapiens) (UniProt Q8N4C8); conditions: KINOMEscan 353-kinase binding panel, qPCR; MINK; at 10 µM; stronger effect = lower value
[13] = system: CIT; conditions: KINOMEscan 353-kinase binding panel, qPCR, at 10 µM, stronger effect = lower value
[14] = system: EPHA7; conditions: KINOMEscan 353-kinase binding panel, qPCR, at 10 µM, stronger effect = lower value
[15] = system: SgK085; conditions: KINOMEscan 353-kinase binding panel, qPCR, at 10 µM, stronger effect = lower value
[16] = target: Serine/threonine-protein kinase B-raf (Homo sapiens) (UniProt P15056); conditions: KINOMEscan 353-kinase binding panel, qPCR, at 10 µM, stronger effect = lower value
Serine/threonine-protein kinase B-raf (Homo sapiens), sequence (P15056 whole entry, looked up): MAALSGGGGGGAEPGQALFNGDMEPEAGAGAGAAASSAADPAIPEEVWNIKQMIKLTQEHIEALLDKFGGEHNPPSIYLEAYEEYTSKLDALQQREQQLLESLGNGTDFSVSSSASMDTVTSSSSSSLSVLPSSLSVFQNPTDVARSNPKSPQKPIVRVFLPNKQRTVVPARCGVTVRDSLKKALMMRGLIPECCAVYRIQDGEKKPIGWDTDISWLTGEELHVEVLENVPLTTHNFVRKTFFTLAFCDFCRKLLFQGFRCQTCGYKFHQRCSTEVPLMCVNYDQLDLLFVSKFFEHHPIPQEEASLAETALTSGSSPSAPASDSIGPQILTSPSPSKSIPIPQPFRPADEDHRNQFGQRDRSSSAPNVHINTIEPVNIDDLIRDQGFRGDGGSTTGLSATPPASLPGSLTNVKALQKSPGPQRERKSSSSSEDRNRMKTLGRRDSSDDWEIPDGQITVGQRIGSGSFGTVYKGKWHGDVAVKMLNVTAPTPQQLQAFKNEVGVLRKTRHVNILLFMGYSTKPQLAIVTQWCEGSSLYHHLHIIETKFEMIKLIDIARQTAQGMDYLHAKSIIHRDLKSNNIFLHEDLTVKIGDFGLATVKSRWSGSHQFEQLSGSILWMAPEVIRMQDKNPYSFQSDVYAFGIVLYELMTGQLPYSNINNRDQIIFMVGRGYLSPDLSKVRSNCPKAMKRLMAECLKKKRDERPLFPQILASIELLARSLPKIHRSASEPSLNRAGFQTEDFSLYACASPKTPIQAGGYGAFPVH

[17] = target: Mitogen-activated protein kinase kinase kinase kinase 2 (Homo sapiens) (UniProt Q12851); conditions: KINOMEscan 353-kinase binding panel, qPCR; MAP4K2; at 10 µM; stronger effect = lower value
Mitogen-activated protein kinase kinase kinase kinase 2 (Homo sapiens), sequence (Q12851 whole entry, looked up): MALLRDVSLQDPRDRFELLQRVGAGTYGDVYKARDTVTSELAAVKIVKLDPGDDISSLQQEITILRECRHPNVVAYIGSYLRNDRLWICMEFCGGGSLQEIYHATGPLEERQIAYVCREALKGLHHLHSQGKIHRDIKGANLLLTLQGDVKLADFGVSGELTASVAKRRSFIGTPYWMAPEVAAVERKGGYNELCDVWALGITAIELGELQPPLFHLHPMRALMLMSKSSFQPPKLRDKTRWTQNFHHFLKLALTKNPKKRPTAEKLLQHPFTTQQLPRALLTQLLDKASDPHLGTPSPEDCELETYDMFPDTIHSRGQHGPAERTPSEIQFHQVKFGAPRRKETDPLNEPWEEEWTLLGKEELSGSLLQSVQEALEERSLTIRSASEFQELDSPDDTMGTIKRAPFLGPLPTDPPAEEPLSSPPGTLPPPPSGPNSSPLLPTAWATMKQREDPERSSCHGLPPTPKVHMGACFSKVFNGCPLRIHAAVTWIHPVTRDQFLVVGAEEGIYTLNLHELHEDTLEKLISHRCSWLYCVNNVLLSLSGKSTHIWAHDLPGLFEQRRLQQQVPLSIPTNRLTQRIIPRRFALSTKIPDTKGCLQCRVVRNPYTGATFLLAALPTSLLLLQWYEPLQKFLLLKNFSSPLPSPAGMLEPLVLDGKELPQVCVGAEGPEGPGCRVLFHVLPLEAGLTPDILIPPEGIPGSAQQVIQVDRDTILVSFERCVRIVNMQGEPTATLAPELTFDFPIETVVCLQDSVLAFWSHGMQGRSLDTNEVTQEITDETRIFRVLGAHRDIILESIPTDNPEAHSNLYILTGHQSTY

[18] = target: 5'-AMP-activated protein kinase catalytic subunit alpha-1 (Homo sapiens) (UniProt Q13131); conditions: KINOMEscan 353-kinase binding panel, qPCR; AMPK-alpha1; at 10 µM; stronger effect = lower value
5'-AMP-activated protein kinase catalytic subunit alpha-1 (Homo sapiens), sequence (Q13131 whole entry, looked up): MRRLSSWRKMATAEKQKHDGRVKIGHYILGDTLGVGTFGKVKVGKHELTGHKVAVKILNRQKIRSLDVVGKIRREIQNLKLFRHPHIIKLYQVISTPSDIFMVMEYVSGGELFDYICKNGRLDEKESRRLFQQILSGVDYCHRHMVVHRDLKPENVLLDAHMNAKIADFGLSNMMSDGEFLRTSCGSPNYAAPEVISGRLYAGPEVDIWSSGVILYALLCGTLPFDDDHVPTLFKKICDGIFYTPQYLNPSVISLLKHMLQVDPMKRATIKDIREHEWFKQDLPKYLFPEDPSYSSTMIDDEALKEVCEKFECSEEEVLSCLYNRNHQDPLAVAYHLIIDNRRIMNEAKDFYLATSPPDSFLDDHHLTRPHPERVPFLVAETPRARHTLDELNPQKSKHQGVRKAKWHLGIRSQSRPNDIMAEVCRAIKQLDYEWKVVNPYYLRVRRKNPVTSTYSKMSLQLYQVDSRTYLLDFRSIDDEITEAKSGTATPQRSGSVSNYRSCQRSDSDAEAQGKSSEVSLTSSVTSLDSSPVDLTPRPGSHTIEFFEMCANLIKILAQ

[19] = target: Inhibitor of nuclear factor kappa-B kinase subunit alpha (Homo sapiens) (UniProt O15111); conditions: KINOMEscan 353-kinase binding panel, qPCR; IKK-alpha; at 10 µM; stronger effect = lower value
[20] = target: Tyrosine-protein kinase Yes (Homo sapiens) (UniProt P07947); conditions: KINOMEscan 353-kinase binding panel, qPCR, at 10 µM, stronger effect = lower value
[21] = system: PHKG1; conditions: KINOMEscan 353-kinase binding panel, qPCR, at 10 µM, stronger effect = lower value
[22] = target: Serine/threonine-protein kinase Chk1 (Homo sapiens) (UniProt O14757); conditions: KINOMEscan 353-kinase binding panel, qPCR; CHEK1; at 10 µM; stronger effect = lower value
Serine/threonine-protein kinase Chk1 (Homo sapiens), sequence (O14757 whole entry, looked up): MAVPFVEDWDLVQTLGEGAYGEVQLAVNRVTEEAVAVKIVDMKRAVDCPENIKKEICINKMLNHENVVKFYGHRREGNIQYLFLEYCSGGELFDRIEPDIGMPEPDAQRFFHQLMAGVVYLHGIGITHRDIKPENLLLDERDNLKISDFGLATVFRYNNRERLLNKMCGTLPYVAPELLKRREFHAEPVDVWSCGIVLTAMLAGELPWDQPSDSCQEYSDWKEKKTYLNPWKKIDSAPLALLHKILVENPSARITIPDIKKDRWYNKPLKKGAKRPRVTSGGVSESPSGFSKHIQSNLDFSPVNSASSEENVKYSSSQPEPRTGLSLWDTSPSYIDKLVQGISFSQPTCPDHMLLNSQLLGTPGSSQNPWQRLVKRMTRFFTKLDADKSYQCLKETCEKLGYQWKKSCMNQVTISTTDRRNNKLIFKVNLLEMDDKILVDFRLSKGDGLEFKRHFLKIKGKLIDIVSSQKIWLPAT

[23] = target: Calcium/calmodulin-dependent protein kinase type 1 (Homo sapiens) (UniProt Q14012); conditions: KINOMEscan 353-kinase binding panel, qPCR; CAMK1; at 10 µM; stronger effect = lower value
Calcium/calmodulin-dependent protein kinase type 1 (Homo sapiens), sequence (Q14012 whole entry, looked up): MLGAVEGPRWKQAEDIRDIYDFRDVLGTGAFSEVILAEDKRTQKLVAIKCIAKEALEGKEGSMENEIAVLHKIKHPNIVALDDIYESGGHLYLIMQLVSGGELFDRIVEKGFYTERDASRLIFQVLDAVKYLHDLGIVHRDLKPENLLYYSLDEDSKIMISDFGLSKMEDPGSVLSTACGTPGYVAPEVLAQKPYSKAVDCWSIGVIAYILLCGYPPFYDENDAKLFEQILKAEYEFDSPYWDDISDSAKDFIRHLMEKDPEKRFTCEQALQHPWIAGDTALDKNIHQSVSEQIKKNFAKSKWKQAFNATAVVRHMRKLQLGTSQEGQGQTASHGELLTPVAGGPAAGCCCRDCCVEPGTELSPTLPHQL

[24] = target: Calcium/calmodulin-dependent protein kinase type 1D (Homo sapiens) (UniProt Q8IU85); conditions: KINOMEscan 353-kinase binding panel, qPCR; CAMK1D; at 10 µM; stronger effect = lower value
Calcium/calmodulin-dependent protein kinase type 1D (Homo sapiens), sequence (Q8IU85 whole entry, looked up): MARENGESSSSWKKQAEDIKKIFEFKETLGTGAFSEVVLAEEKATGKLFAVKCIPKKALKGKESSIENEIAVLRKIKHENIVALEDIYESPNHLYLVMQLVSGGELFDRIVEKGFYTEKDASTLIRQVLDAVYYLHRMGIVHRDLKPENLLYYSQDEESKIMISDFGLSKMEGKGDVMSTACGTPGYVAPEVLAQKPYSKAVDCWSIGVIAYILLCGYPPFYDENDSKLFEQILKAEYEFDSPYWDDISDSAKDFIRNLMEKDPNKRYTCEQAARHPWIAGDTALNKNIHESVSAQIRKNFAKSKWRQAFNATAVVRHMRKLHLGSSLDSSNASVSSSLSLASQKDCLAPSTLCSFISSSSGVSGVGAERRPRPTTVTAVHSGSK

[25] = system: AMPK-alpha2; conditions: KINOMEscan 353-kinase binding panel, qPCR, at 10 µM, stronger effect = lower value
[26] = system: LATS1; conditions: KINOMEscan 353-kinase binding panel, qPCR, at 10 µM, stronger effect = lower value
[27] = system: ACVR1B; conditions: KINOMEscan 353-kinase binding panel, qPCR, at 10 µM, stronger effect = lower value
[28] = system: CAMK1G; conditions: KINOMEscan 353-kinase binding panel, qPCR, at 10 µM, stronger effect = lower value
[29] = target: Dual specificity protein kinase CLK3 (Homo sapiens) (UniProt P49761); conditions: KINOMEscan 353-kinase binding panel, qPCR, at 10 µM, stronger effect = lower value
[30] = target: MAP/microtubule affinity-regulating kinase 4 (Homo sapiens) (UniProt Q96L34); conditions: KINOMEscan 353-kinase binding panel, qPCR; MARK4; at 10 µM; stronger effect = lower value
MAP/microtubule affinity-regulating kinase 4 (Homo sapiens), sequence (Q96L34 whole entry, looked up): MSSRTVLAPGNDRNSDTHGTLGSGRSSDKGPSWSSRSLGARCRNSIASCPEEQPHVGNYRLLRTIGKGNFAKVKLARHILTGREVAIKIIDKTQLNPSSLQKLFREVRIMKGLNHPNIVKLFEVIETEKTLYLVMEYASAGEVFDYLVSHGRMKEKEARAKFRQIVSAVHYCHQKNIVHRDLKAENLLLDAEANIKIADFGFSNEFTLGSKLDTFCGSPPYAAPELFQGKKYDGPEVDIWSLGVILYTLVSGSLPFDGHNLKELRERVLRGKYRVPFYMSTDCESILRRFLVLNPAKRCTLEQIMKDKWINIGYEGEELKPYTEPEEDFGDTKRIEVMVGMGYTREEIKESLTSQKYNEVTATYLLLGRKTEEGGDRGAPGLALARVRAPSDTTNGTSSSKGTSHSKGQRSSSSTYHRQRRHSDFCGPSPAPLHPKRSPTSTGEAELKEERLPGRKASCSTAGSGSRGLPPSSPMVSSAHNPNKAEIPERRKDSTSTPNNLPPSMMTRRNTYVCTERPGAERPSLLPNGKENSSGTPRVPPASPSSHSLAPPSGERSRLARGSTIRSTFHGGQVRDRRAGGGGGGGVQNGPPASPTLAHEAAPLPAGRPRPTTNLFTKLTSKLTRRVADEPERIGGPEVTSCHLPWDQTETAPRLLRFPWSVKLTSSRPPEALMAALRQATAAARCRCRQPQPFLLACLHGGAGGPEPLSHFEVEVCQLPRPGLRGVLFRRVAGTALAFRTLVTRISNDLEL

[31] = system: TGFBR1; conditions: KINOMEscan 353-kinase binding panel, qPCR, at 10 µM, stronger effect = lower value
[32] = target: Fibroblast growth factor receptor 3 (Homo sapiens) (UniProt P22607); conditions: KINOMEscan 353-kinase binding panel, qPCR, at 10 µM, stronger effect = lower value
Fibroblast growth factor receptor 3 (Homo sapiens), sequence (P22607 whole entry, looked up): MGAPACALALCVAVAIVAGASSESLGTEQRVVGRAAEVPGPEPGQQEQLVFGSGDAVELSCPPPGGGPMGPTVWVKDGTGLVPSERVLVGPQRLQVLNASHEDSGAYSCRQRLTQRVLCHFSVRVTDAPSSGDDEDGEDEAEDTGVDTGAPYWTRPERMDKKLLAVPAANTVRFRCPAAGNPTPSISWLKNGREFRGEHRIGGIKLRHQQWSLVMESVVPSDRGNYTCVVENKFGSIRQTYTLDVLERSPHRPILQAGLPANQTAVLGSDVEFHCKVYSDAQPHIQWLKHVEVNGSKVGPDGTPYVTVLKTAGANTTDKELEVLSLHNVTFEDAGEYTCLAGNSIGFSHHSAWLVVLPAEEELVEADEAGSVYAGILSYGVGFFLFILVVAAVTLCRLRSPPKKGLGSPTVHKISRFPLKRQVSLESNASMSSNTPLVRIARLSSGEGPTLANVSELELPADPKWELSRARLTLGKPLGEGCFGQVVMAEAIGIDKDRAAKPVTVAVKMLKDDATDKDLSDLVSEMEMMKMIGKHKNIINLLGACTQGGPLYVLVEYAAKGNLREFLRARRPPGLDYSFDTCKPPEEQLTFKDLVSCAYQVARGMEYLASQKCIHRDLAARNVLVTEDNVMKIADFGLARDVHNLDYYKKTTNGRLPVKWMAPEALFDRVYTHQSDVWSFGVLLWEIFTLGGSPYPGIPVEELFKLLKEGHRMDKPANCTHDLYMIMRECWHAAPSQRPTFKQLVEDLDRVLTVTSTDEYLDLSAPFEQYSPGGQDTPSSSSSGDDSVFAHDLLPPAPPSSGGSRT

Measured: percent of control binding

Cc1cc2nc(NCCCO)n(CC(=O)c3cc(C(C)(C)C)c(O)c(C(C)(C)C)c3)c2cc1C
inactive: [1] 84% | [2] 100% | [3] 81% | [4] 84% | [5] 100% | [6] 100% | [7] 89% | [8] 86% | [9] 100% | [10] 84% | [11] 100% | [12] 100% | [13] 100% | [14] 87% | [15] 99% | [16]; BRAF(V600E) 70% | [16]; BRAF 88% | [17] 89% | [18] 94% | [19] 74% | [20] 100% | [21] 100% | [22] 100% | [23] 100% | [24] 100% | [25] 100% | [26] 94% | [27] 84% | [28] 88% | [29] 100% | [30] 98% | [31] 92% | [32]; FGFR3(G697C) 100% | [32]; FGFR3 80%
